The record followed here is patent EP0986381B1, “USE OF DITERPENES LIKE HYPOESTOXIDES FOR THE MANUFACTURE OF A MEDICAMENT FOR IMMUNOSUPPRESSION, ANTICANCER AND ANTIVIRAL TREATMENT” (Immune Modulation, Inc., priority 1997, dated 1998).

The test system of data set [1] is cultured normal human PBMCs. In words: Toxicity on PHA-activated normal human PBMCs, trypan blue dye exclusion. The settings on record: 0.0001 µM - 0.5 µM, 7 days. The class given is cell-based. On the procedure:
PBMCs from two individuals were co-cultured in the presence of varying concentrations of JO-4 for 5 days. […] Cytotoxic T lymphocytes (CTLs) were generated from one-way MLR in the absence or presence of JO-4 for 5-7 days. At the end of culture, CTLs were harvested and tested in a four hour ^51Cr-release assay against activated lymphocytes which were used as stimulators in the one-way MLR. […] Human PBMCs were cultured with 5 µg/ml LPS in the absence or presence of 1.0 µg/ml JO-4 in 24-well microtiter plates for 24 hours. At the end of culture, supernatants were harvested and tested by EIA for the presence of IL-1β, TNF-α, and IL-6. […] PBMCs from two individuals were co-cultured in the absence or presence of varying concentrations of JO-4A for 5 days. […] Antiviral effects of JO-4 on HSV-2 were determined as described in Figure 16A. • Figure 17A and 17B show the results of toxicity testing of JO-4 and JO-4A on normal, uninfected African green monkey kidney cells (CV-1), respectively. […] Cytotoxicity was determined by colorimetric (MTT) assay.
Peripheral Blood Mononuclear cells (PBMCs): Heparinized venous blood was obtained from healthy adult volunteers and PBMCs were separated by centrifugation over Ficoll-Hypaque (Pharmacia Biotech, Piscataway, NJ). […] Cell viability was assessed by trypan blue dye exclusion test and the cell number was adjusted to required concentration.

Data set [2] concerns mouse malignant melanoma cells (B16-F1). Description: Colorimetric MTT cytotoxicity assay, B16-F1. The class given is cell-based. The settings on record: B16-F1, 72 hours, read-out: IC50 concentration (cytotoxicity). On the procedure: The following materials and methods were employed in the non-limiting Examples set out below. Tumor cells: Human cervical epitheloid carcinoma (HeLa), human renal clear cell carcinoma (CAKI-1), human malignant melanoma (RPMI-7951) and mouse malignant melanoma (B16-F1) were procured from ATCC (Rockville, MD) and maintained in vitro with MEM medium (Mediatech, Inc., Herndon, VA) supplemented with 10% heat-inactivated fetal bovine serum (American Qualex, San Clemente, CA), 10mM glutamine, 100 U/ml penicillin, and 100 µg/ml streptomycin (Sigma Chemicals, Saint Louis, MO) (complete medium). […] Cell viability was assessed by trypan blue dye exclusion test and the cell number was adjusted to required concentration. Colorimetric MTT assay: Cytotoxic effects of the hypoestoxide compounds of formulas I and II (JO-4A) were determined in vitro by a colorimetric assay (Mosmann, T., J. Immunol. Methods, 65: 55-63, 1983). […] Mixing with a multichannel pipetter dissolved the dark blue crystals and the absorbance was measured at 545-650 nm using an ELISA plate reader. […] The tumors were measured with a microcaliper, and the tumor volume was calculated by the formula: Length x width x height x 0.5236 (Jungwirth, A. et al., Proc. Natl. Acad. Sci. USA, 94:5810-5813, 1997). […]

In the case of `C=C1C(=O)CC2CC3OC3(C)CCC3OC3(C)CC(O)C1C2(C)C` (centres unmarked) [JO-4A], the “toxic effect on cultured human PBMC” value in data set [1] was “no toxic effect”. Moreover, the IC50 in data set [2] fell in the range of 6.25 to 12.5 µM.
